Test system: TPM3-NTRK1-wt IC50 / primary target (e.g. CD74-ROS1-wt) IC50, Ba/F3 cells
Assay: Cell assay TRKA selectivity (TRKA potency divided by primary target potency)
Format: cell-based
Details: for TPM3-NTRK1-wt/CD74-ROS1-G2032R: TRKA selectivity ratio: TPM3-NTRK1-wt IC50 / CD74-ROS1-G2032R IC50, Ba/F3 cells; for TPM3-NTRK1-wt/CD74-ROS1-wt: TRKA selectivity ratio: TPM3-NTRK1-wt IC50 / CD74-ROS1-wt IC50, Ba/F3 cells; for TPM3-NTRK1-wt/EML4-ALK-L1196M-G1202R: TRKA selectivity ratio: TPM3-NTRK1-wt IC50 / EML4-ALK-L1196M-G1202R IC50, Ba/F3 cells; for TPM3-NTRK1-wt/EML4-ALK-wt: TRKA selectivity ratio: TPM3-NTRK1-wt IC50 / EML4-ALK-wt IC50, Ba/F3 cells
In short: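 IL-3-independent Ba/F3 lines stably expressing TPM3-TRKA or the primary fusion (e.g. CD74-ROS1 wt) were exposed to 3-fold compound dilutions for 72 h. Viability was read by CellTiter-Glo luminescence, with IC50 from four-parameter logistic fit. Selectivity is TPM3-NTRK1 IC50 divided by primary-target IC50, binned A (>30-fold) to D (<1).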

Row | Compound | TPM3-NTRK1-wt/CD74-ROS1-G2032R | TPM3-NTRK1-wt/CD74-ROS1-wt | TPM3-NTRK1-wt/EML4-ALK-L1196M-G1202R | TPM3-NTRK1-wt/EML4-ALK-wt
1 | CCn1ncc2c1-c1cnc(N)c(n1)OC(C)c1cc(F)ccc1-c1nccn1C2 (centres unmarked) [Example 163, 3-ethyl-16-fluoro-19-methyl-20-oxa-3,4,8,11,23,25-hexaazapentacyclo[19.3.1.0^2,^6.0^8,^12.0^13,^18]pentacosa-1(24),2(6),4,9,11,13,15,17,21(25),22-decaen-22-amine] | A (bin A for very high selectivity, ratio>30-fold) | A (bin A for very high selectivity, ratio>30-fold) | C (bin C for moderate selectivity, ratio≥1) | A (bin A for very high selectivity, ratio>30-fold)
2 | C[C@H]1Oc2cc(cnc2N)-c2c(cnn2CC(F)F)Cc2cn(C)nc2-c2ccc(F)cc21 [Example 22, (19R)-3-(2,2-difluoroethyl)-16-fluoro-10,19-dimethyl-20-oxa-3,4,10,11,23-pentaazapentacyclo[19.3.1.0^2,^6.0^8,^12.0^13,^18]pentacosa-1(24),2(6),4,8,11,13,15,17,21(25),22-decaen-22-amine] | A (bin A for very high selectivity, ratio>30-fold) | A (bin A for very high selectivity, ratio>30-fold) | A (bin A for very high selectivity, ratio>30-fold) | A (bin A for very high selectivity, ratio>30-fold)
3 | CCc1nn(C)c2c1-c1cnc(N)c(c1)O[C@H](C)c1cc(F)ccc1-c1nn(C)cc1C2 [Example 171, (19R)-3-ethyl-16-fluoro-5,10,19-trimethyl-20-oxa-4,5,10,11,23-pentaazapentacyclo[19.3.1.0^2,^6.0^8,^12.0^13,^18]pentacosa-1(24),2(6),3,8,11,13,15,17,21(25),22-decaen-22-amine] | A (bin A for very high selectivity, ratio>30-fold) | A (bin A for very high selectivity, ratio>30-fold) | B (bin B for high selectivity, ratio>10-fold) | A (bin A for very high selectivity, ratio>30-fold)
4 | C[C@H]1Oc2cc(cnc2N)-c2c(C#N)ncn2Cc2scnc2-c2ccc(F)cc21 [Example 64, (19R)-22-amino-16-fluoro-19-methyl-20-oxa-9-thia-4,6,11,23-tetraazapentacyclo[19.3.1.0^2,^6.0^8,^12.0^13,^18]pentacosa-1(24),2,4,8(12),10,13(18),14,16,21(25),22-decaene-3-carbonitrile] | A (bin A for very high selectivity, ratio>30-fold) | A (bin A for very high selectivity, ratio>30-fold) | B (bin B for high selectivity, ratio>10-fold) | A (bin A for very high selectivity, ratio>30-fold)
5 | C[C@H]1Oc2cc(cnc2N)-c2c(cnn2CC2CC2)Cc2cn(C(F)F)nc2-c2ccc(F)cc21 [Example 160, (19R)-3-(cyclopropylmethyl)-10-(difluoromethyl)-16-fluoro-19-methyl-20-oxa-3,4,10,11,23-pentaazapentacyclo[19.3.1.0^2,^6.0^8,^12.0^13,^18]pentacosa-1(24),2(6),4,8,11,13,15,17,21(25),22-decaen-22-amine] | A (bin A for very high selectivity, ratio>30-fold) | A (bin A for very high selectivity, ratio>30-fold) | A (bin A for very high selectivity, ratio>30-fold) | A (bin A for very high selectivity, ratio>30-fold)
6 | C[C@H]1Oc2cc(cnc2N)-c2c(C#N)nn(C)c2Cc2csnc2-c2ccc(F)cc21 [Example 143, (19R)-22-amino-16-fluoro-5,19-dimethyl-20-oxa-10-thia-4,5,11,23-tetraazapentacyclo[19.3.1.0^2,^6.0^8,^12.0^13,^18]pentacosa-1(24),2(6),3,8,11,13,15,17,21(25),22-decaene-3-carbonitrile] | A (bin A for very high selectivity, ratio>30-fold) | A (bin A for very high selectivity, ratio>30-fold) | B (bin B for high selectivity, ratio>10-fold) | A (bin A for very high selectivity, ratio>30-fold)
7 | C[C@H]1Oc2cc(cnc2N)-c2c(C#N)cnn2Cc2cccnc2-c2ccc(F)cc21 [Example 14, (20R)-23-amino-17-fluoro-20-methyl-21-oxa-5,6,12,24-tetraazapentacyclo[20.3.1.0^2,^6.0^8,^13.0^14,^19]hexacosa-1(25),2,4,8(13),9,11,14,16,18,22(26),23-undecaene-3-carbonitrile] | B (bin B for high selectivity, ratio>10-fold) | A (bin A for very high selectivity, ratio>30-fold) | C (bin C for moderate selectivity, ratio≥1) | A (bin A for very high selectivity, ratio>30-fold)
8 | CCn1ncc2c1-c1cnc(N)c(c1)OCc1cc(F)ccc1-c1nn(C)cc1C2 [Example 49, 3-ethyl-16-fluoro-10-methyl-20-oxa-3,4,10,11,23-pentaazapentacyclo[19.3.1.0^2,^6.0^8,^12.0^13,^18]pentacosa-1(24),2(6),4,8,11,13,15,17,21(25),22-decaen-22-amine] | A (bin A for very high selectivity, ratio>30-fold) | A (bin A for very high selectivity, ratio>30-fold) | B (bin B for high selectivity, ratio>10-fold) | A (bin A for very high selectivity, ratio>30-fold)
9 | CCn1ncc2c1-c1cnc(N)c(c1)O[C@H](C)c1cc(F)ccc1-c1nn(C(F)F)cc1C2 [Example 86, (19R)-10-(difluoromethyl)-3-ethyl-16-fluoro-19-methyl-20-oxa-3,4,10,11,23-pentaazapentacyclo[19.3.1.0^2,^6.0^8,^12.0^13,^18]pentacosa-1(24),2(6),4,8,11,13,15,17,21(25),22-decaen-22-amine] | B (bin B for high selectivity, ratio>10-fold) | A (bin A for very high selectivity, ratio>30-fold) | D (bin D for low selectivity, ratio<1) | C (bin C for moderate selectivity, ratio≥1)
10 | CCn1ncc2c1-c1cnc(N)c(c1)O[C@H](C)c1cc(F)ccc1-c1nccn1C2 [Example 31, (19R)-3-ethyl-16-fluoro-19-methyl-20-oxa-3,4,8,11,23-pentaazapentacyclo[19.3.1.0^2,^6.0^8,^12.0^13,^18]pentacosa-1(24),2(6),4,9,11,13,15,17,21(25),22-decaen-22-amine] | A (bin A for very high selectivity, ratio>30-fold) | A (bin A for very high selectivity, ratio>30-fold) | C (bin C for moderate selectivity, ratio≥1) | A (bin A for very high selectivity, ratio>30-fold)
11 | Cn1nc(C#N)c2c1Cc1cccnc1-c1ccc(F)cc1COc1cc-2cnc1N [Example 101, 23-amino-17-fluoro-5-methyl-21-oxa-4,5,12,24-tetraazapentacyclo[20.3.1.0^2,^6.0^8,^13.0^14,^19]hexacosa-1(25),2(6),3,8(13),9,11,14,16,18,22(26),23-undecaene-3-carbonitrile] | A (bin A for very high selectivity, ratio>30-fold) | A (bin A for very high selectivity, ratio>30-fold) | A (bin A for very high selectivity, ratio>30-fold) | A (bin A for very high selectivity, ratio>30-fold)
12 | CCc1nn(C)c2c1-c1cnc(N)c(c1)OCc1cc(F)ccc1-c1nc(C)sc1C2 [Example 175, 3-ethyl-16-fluoro-5,10-dimethyl-20-oxa-9-thia-4,5,11,23-tetraazapentacyclo[19.3.1.0^2,^6.0^8,^12.0^13,^18]pentacosa-1(24),2(6),3,8(12),10,13,15,17,21(25),22-decaen-22-amine] | A (bin A for very high selectivity, ratio>30-fold) | A (bin A for very high selectivity, ratio>30-fold) | B (bin B for high selectivity, ratio>10-fold) | A (bin A for very high selectivity, ratio>30-fold)
13 | CCn1ncc2c1-c1cnc(N)c(c1)O[C@H](C)c1cc(F)ccc1-c1ncc(OC)cc1C2 [Example 149, (20R)-3-ethyl-17-fluoro-10-methoxy-20-methyl-21-oxa-3,4,12,24-tetraazapentacyclo[20.3.1.0^2,^6.0^8,^13.0^14,^19]hexacosa-1(25),2(6),4,8(13),9,11,14,16,18,22(26),23-undecaen-23-amine] | B (bin B for high selectivity, ratio>10-fold) | A (bin A for very high selectivity, ratio>30-fold) | D (bin D for low selectivity, ratio<1) | B (bin B for high selectivity, ratio>10-fold)
14 | C[C@H]1Oc2cc(cnc2N)-c2c(C#N)nn(C)c2Cc2ccccc2-c2ccc(F)cc21 [Example 117, (20R)-23-amino-17-fluoro-5,20-dimethyl-21-oxa-4,5,24-triazapentacyclo[20.3.1.0^2,^6.0^8,^13.0^14,^19]hexacosa-1(25),2(6),3,8(13),9,11,14,16,18,22(26),23-undecaene-3-carbonitrile] | A (bin A for very high selectivity, ratio>30-fold) | A (bin A for very high selectivity, ratio>30-fold) | B (bin B for high selectivity, ratio>10-fold) | A (bin A for very high selectivity, ratio>30-fold)

From patent US11667649B2, “Heteroaromatic macrocyclic ether chemotherapeutic agents” (Nuvalent, Inc., priority 2020, dated 2023)
